From patent US11111251B2, “Positive allosteric modulators of the muscarinic acetylcholine receptor M1” (Vanderbilt University, priority 2016, dated 2021) come the findings set out here.

In this assay the target is T1, human mAChR M1 (Homo sapiens, UniProt P11229).
T1 sequence (P11229 1-460): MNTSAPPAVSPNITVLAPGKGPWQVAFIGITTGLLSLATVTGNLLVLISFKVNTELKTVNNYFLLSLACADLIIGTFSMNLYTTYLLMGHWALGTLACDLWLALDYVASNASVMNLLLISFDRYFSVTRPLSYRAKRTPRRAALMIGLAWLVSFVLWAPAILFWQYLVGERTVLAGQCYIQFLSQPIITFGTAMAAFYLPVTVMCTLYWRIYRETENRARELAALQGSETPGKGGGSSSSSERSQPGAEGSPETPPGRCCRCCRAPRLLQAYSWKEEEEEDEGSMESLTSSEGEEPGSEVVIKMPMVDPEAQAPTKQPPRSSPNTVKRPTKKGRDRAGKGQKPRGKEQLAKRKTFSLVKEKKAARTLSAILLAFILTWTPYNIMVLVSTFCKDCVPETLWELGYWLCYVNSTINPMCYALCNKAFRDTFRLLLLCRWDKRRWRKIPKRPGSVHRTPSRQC
Briefly: mAChR M1 cell-based functional assay: calcium mobilization, positive allosteric modulator mode (increase in EC20 acetylcholine response). The conditions noted are these: for Emax: read-out: Human M1 Emax (%). A digest of the protocol: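 PAM potency reflects the concentration-dependent increase in calcium response to an EC20 acetylcholine challenge, given 144 s into a 300 s read after compound addition at 4 s (EC80 follows at 230 s). Cells were hM1-expressing CHO-K1, loaded 50 min with Fluo-4 AM. Curves used 11 points at 1:3 dilutions and four-parameter logistic fitting.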
A general note: A change in cytosolic calcium serves as a functional read-out for many receptors and channels.

Setting [1] is: Table 2, human M1, read-out: Human M1 EC50.
[2] abbreviates: Table 1, mAChR M1 cell-based functional assay, PAM mode, species not given, read-out: EC50.

Where two headings read alike, the source gives them in different places.

On to `Cn1ccc(-c2ccc(Cc3cc(C(=O)NC4CCOCC4)nc4ccn(C)c34)cc2)n1` [Compound 473, 1-methyl-7-[[4-(1-methylpyrazol-3-yl)phenyl]methyl]-N-tetrahydropyran-4-yl-pyrrolo[3,2-b]pyridine-5-carboxamide], for which the EC50 (in general, the concentration giving half of the maximal effect) under setting [1] was 106 nM. For the same compound, the Emax (in general, the greatest response seen or fitted, relative to the assay's reference) (Table 2, human M1) came out at 85.8%.
Taken in the same sequence, the figures for `Cc1ccc(Cc2cc(C(=O)NC3CCCCNC3=O)nc3c(C)csc23)cn1` (stereo not drawn) [Compound 111, 3-methyl-7-[(6-methyl-3-pyridyl)methyl]-N-(2-oxoazepan-3-yl)thieno[3,2-b]pyridine-5-carboxamide] were 2400 nM and 72.5%.
In the same order, the values of `Cc1ccc(Cc2cc(C(=O)NC3CCCCNC3=O)nc3ccsc23)cn1` (stereo not drawn) [Compound 67, 7-[(6-methyl-3-pyridyl)methyl]-N-(2-oxoazepan-3-yl)thieno[3,2-b]pyridine-5-carboxamide] are 2780 nM and 92.7%.
In the same order, the values of `Cn1ccc(-c2ccc(Cc3cc(C(=O)N[C@@H]4CC[C@H]4O)nc4ccsc34)cn2)n1` [Compound 412] are 222 nM and 69.1%.
Take `Cn1ncc2nc(C(=O)N[C@H]3CCOC[C@@H]3O)cc(Cc3ccc(-c4cscn4)cc3)c21` [Compound 493, N-[(3R,4S)-3-hydroxytetrahydropyran-4-yl]-1-methyl-7-[(4-thiazol-4-ylphenyl)-methyl]pyrazolo[4,3-b]pyridine-5-carboxamide]: the EC50 under setting [1] worked out at 176 nM. Moreover, under “Table 2, human M1”, the maximal response (Emax) was 65.5%.
Consider `Cc1ccc(Cc2cc(C(=O)N[C@@H]3CCCNC3)nc3ccsc23)cn1` [Compound 265, 7-[(6-methyl-3-pyridyl)methyl]-N-[(3R)-3-piperidyl]thieno[3,2-b]pyridine-5-carboxamide], for which the concentration for a half-maximal effect (EC50) under setting [1] is over 10000 nM. In addition, the Emax (Table 2, human M1) was 56.4%.
Taken in the same sequence, the figures for `Cn1ccc(-c2ccc(Cc3cc(C(=O)NC4CCOCC4(C)C)nc4ccn(C)c34)cc2)n1` (stereo not drawn) [Compound 477, N-(3,3-dimethyltetrahydropyran-4-yl)-1-methyl-7-[[4-(1-methylpyrazol-3-yl)phenyl]methyl]pyrrolo[3,2-b]pyridine-5-carboxamide] were 200 nM and 86.4%.
Taken in the same sequence, the figures for `Cc1ncc(Cc2cc(C(=O)N[C@@H]3CCOC[C@H]3O)nc3ccsc23)cn1` [Compound 128, N-[(3S,4R)-3-hydroxytetrahydropyran-4-yl]-7-[(2-methylpyrimidin-5-yl)methyl]thieno[3,2-b]pyridine-5-carboxamide] were over 10000 nM and 75%.
On to `Cc1ccc(Cc2cc(C(=O)N[C@@H]3CCOC[C@H]3O)nc3c(C)csc23)cn1` [Compound 104], for which, under setting [1], the EC50 amounted to 164 nM. In addition, the maximum response (Emax) (Table 2, human M1) worked out at 86.8%.
Regarding `Cc1ccc(Cc2cc(C(=O)NC34CC5CC(CC(O)(C5)C3)C4)nc3c(C)csc23)cn1` [Compound 108, N-(3-hydroxy-1-adamantyl)-3-methyl-7-[(6-methyl-3-pyridyl)methyl]thieno[3,2-b]pyridine-5-carboxamide], under setting [1], the EC50 turned out to be 5270 nM. The Emax (Table 2, human M1) was found to be 48.4%.
In the same order, the values of `O=C(N[C@H]1CCC[C@@H]1O)c1cc(Cc2ccc(-c3nccs3)cc2)c2sccc2n1` [Compound 314] are 203 nM and 84.1%.
Take `Cc1ccc(Oc2cc(C(=O)NC(CO)c3ccccc3)nc3ccsc23)cn1` (stereo not drawn) [Compound 27, N-(2-hydroxy-1-phenyl-ethyl)-7-[(6-methyl-3-pyridyl)oxy]thieno[3,2-b]pyridine-5-carboxamide]: the EC50 under setting [2] is over 10000 nM.
As for `Cn1cc(-c2ccc(Cc3cc(C(=O)NC4CCOCC4)nc4ccn(C)c34)cn2)cn1` [Compound 470, 1-methyl-7-[[6-(1-methylpyrazol-4-yl)-3-pyridyl]methyl]-N-tetrahydropyran-4-yl-pyrrolo[3,2-b]pyridine-5-carboxamide], under setting [1], the EC50 was 223 nM. In addition, for the setting “Table 2, human M1”, the Emax was found to be 86%.
Taken in the same sequence, the figures for `Cn1ccc2nc(C(=O)N[C@H]3CCOC3)cc(Cc3ccc(-c4cscn4)cc3)c21` [Compound 464, 1-methyl-N-[(3S)-tetrahydrofuran-3-yl]-7-[(4-thiazol-4-ylphenyl)methyl]pyrrolo[3,2-b]pyridine-5-carboxamide] were 1870 nM and 71.2%.
In the case of `Cc1ncc(Cc2cc(C(=O)N[C@@H]3CCCCC[C@H]3O)nc3ccsc23)s1` [Compound 140, N-[(1R,2R)-2-hydroxycycloheptyl]-7-[(2-methylthiazol-5-yl)methyl]thieno[3,2-b]pyridine-5-carboxamide], under setting [1], the EC50 was 306 nM. Moreover, the maximal response (Emax) (Table 2, human M1) is 82.8%.
Take `COCCNC(=O)c1cc(Cc2ccc(-c3cncs3)cc2)c2sccc2n1` [Compound 403, N-(2-methoxyethyl)-7-[(4-thiazol-5-ylphenyl)methyl]thieno[3,2-b]pyridine-5-carboxamide]: the EC50 under setting [1] came out at 6980 nM. In addition, the Emax (Table 2, human M1) was determined as 60.8%.
Taken in the same sequence, the figures for `Cn1ccc(-c2ccc(Cc3cc(C(=O)NC4CCOCC4)nc4ccsc34)cc2)n1` [Compound 254, 7-[[4-(1-methylpyrazol-3-yl)phenyl]methyl]-N-tetrahydropyran-4-yl-thieno[3,2-b]pyridine-5-carboxamide] were 142 nM and 71.6%.
Taken in the same sequence, the figures for `O=C(N[C@H]1CCCCC[C@@H]1O)c1cc(Cc2ccc(-c3cscn3)cc2)c2sccc2n1` [Compound 219, N-[(1S,2S)-2-hydroxycycloheptyl]-7-[(4-thiazol-4-ylphenyl)methyl]thieno[3,2-b]pyridine-5-carboxamide] were 144 nM and 73%.
Taken in the same sequence, the figures for `Cc1nc(-c2ccc(Cc3cc(C(=O)N[C@@H]4CCCOC4)nc4ccsc34)cc2)cs1` [Compound 188, 7-[[4-(2-methylthiazol-4-yl)phenyl]methyl]-N-[(3R)-tetrahydropyran-3-yl]thieno[3,2-b]pyridine-5-carboxamide] were 1790 nM and 83.2%.
Regarding `Cc1ccc(Oc2cc(C(=O)N[C@H]3COCC[C@@H]3O)nc3ccsc23)cn1` [Compound 23, N-[(3S,4S)-4-hydroxytetrahydropyran-3-yl]-7-[(6-methyl-3-pyridyl)oxy]thieno[3,2-b]pyridine-5-carboxamide], the EC50 under setting [2] was over 10000 nM.
Turning to `Cc1nc(-c2ccc(Cc3cc(C(=O)N[C@H]4COCC[C@@H]4O)nc4ccsc34)cc2)cs1` [Compound 193, N-[(3S,4S)-4-hydroxytetrahydropyran-3-yl]-7-[[4-(2-methylthiazol-4-yl)phenyl]methyl]thieno[3,2-b]pyridine-5-carboxamide], the concentration for a half-maximal effect (EC50) under setting [1] is 31.1 nM. Besides, for the setting “Table 2, human M1”, the maximal response (Emax) worked out at 85.7%.
Taken in the same sequence, the figures for `O=C(NCC1CCO1)c1cc(Cc2ccc(-c3nccs3)cc2)c2sccc2n1` (stereo not drawn) [Compound 382, N-(oxetan-2-ylmethyl)-7-[(4-thiazol-2-ylphenyl)methyl]thieno[3,2-b]pyridine-5-carboxamide] were 386 nM and 56.6%.
In the same order, the values of `O=C(NC1COC1)c1cc(Cc2ccc(-c3cncs3)cc2)c2sccc2n1` [Compound 402, N-(oxetan-3-yl)-7-[(4-thiazol-5-ylphenyl)methyl]thieno[3,2-b]pyridine-5-carboxamide] are over 10000 nM and 41.7%.
In the same order, the values of `Cc1nc(-c2ccc(Cc3cc(C(=O)N(C)C4CCOCC4)nc4ccsc34)cc2)co1` [Compound 165, N-methyl-7-[[4-(2-methyloxazol-4-yl)phenyl]methyl]-N-tetrahydropyran-4-yl-thieno[3,2-b]pyridine-5-carboxamide] are over 10000 nM and 70.8%.
For `Cc1ccc(Cc2cc(C(=O)NC3CCCC(O)C3)nc3ccsc23)cn1` (stereo not drawn) [Compound 49, N-(3-hydroxycyclohexyl)-7-[(6-methyl-3-pyridyl)methyl]thieno[3,2-b]pyridine-5-carboxamide], the EC50 under setting [2] was over 10000 nM.
Regarding `Cn1cc(-c2ccc(Cc3cc(C(=O)NC[C@H]4CCCO4)nc4ccsc34)cn2)cn1` [Compound 339, 7-[[6-(1-methylpyrazol-4-yl)-3-pyridyl]methyl]-N-[[(2R)-tetrahydrofuran-2-yl]methyl]thieno[3,2-b]pyridine-5-carboxamide], the EC50 under setting [1] is 131 nM. Where the note is “Table 2, human M1”, the Emax stood at 87.4%.
Taken in the same sequence, the figures for `Cc1ncc(Cc2cc(C(=O)NC3CCCNC3=O)nc3ccsc23)s1` (stereo not drawn) [Compound 143, 7-[(2-methylthiazol-5-yl)methyl]-N-(2-oxo-3-piperidyl)thieno[3,2-b]pyridine-5-carboxamide] were over 10000 nM and 50.5%.
For `O=C(NCC1CCOC1)c1cc(Cc2ccc(-n3cccn3)cc2)c2sccc2n1` (stereo not drawn) [Compound 285, 7-[(4-pyrazol-1-ylphenyl)methyl]-N-(tetrahydrofuran-3-ylmethyl)thieno[3,2-b]pyridine-5-carboxamide], the EC50 under setting [1] was found to be 95.3 nM. The Emax (Table 2, human M1) stood at 64.3%.
Taken in the same sequence, the figures for `Cn1ccc(-c2ccc(Cc3cc(C(=O)NC[C@@H]4CCCN4)nc4ccsc34)cn2)n1` [Compound 426] were 290 nM and 62.7%.
Regarding `O=C(NC1CCCNC1=O)c1cc(Cc2ccc(-c3cscn3)cc2)c2sccc2n1` (stereo not drawn) [Compound 221, N-(2-oxo-3-piperidyl)-7-[(4-thiazol-4-ylphenyl)methyl]thieno[3,2-b]pyridine-5-carboxamide], under setting [1], the EC50 came to 595 nM. In addition, the maximal effect (Emax) (Table 2, human M1) is 86.9%.
